Source: patent publication US12404345B2, “Humanized antibodies against iRHOM2” (SCIRHOM GMBH, priority 2021, dated 2025)

Test system: PMA-induced release of endogenous TGFα from human PC3 prostate cancer cells
Experiment: ELISA-based TGFα release assay, PMA-induced, PC3 cells
Format: cell-based
Conditions: PC-3, Batimastat 10 μM, PMA 25 ng/ml, 2 hours
Protocol: In the following study, ELISA-based TGFα release assays were performed to analyze the inhibitory effects of the antibodies of the invention on PMA-induced release of endogenous TGFα from human PC3 prostate cancer cells.
In brief, on day 1, Nunc black MaxiSorp® 96-well plates (Thermo Fisher Scientific, USA) were coated overnight with 100 μl per well of goat anti-human TGFα capture antibody (provided as part of the DuoSet ELISA kit) at 0.4 μg/ml TBS at 4° C. 80,000 PC3 (European Collection of Authenticated Cell Cultures, UK) cells in 100 μl of normal growth medium were seeded in each well of F-bottom 96-well cell culture plates (Corning, USA) and incubated at 37° C., 5% CO2 overnight. On day 2, the capture antibody solution was removed and MaxiSorp® plates were blocked with 300 μl per well of TBS, 1% BSA at room temperature for 1-2 hours. […] Using an infinite M1000 (Tecan Group, Switzerland) microplate reader, the fluorescence of each well was collected at an excitation wavelength of 435 nm and an emission wavelength of 555 nm.

In the case of CNC(=O)[C@H](Cc1ccccc1)NC(=O)[C@H](CC(C)C)[C@H](CSc1cccs1)C(=O)NO [Batimastat], the inhibition at 10 µM is reported as 90.7%.
